Experimental data reported in patent US4731109A, “Herbicidal 2-haloacetanilides” (Monsanto Company, priority 1982, dated 1988).
Where two headings read alike, the source gives them in different places.

Legend:
[1] = test system: crabgrass (smooth and hairy); experiment: Field tests, selectivity; assay type: in vivo; details: in cotton, 7 WAT
Text: (§1) In the discussion and tables of data below, reference is made to herbicide application rates symbolized as "GR15 " and "GR85 "; these rates are given in kilograms per hectare (kg/ha) which are convertible into pounds per acre (lbs/A) by dividing the kg/ha rate by 1.12.
(§2) A further guide to the effectiveness of a chemical as a selective herbicide is the "selectivity factor" ("SF") for a herbicide in given crops and weeds. The selectivity factor is a measure of the relative degree of crop safety and weed injury and is expressed in terms of the GR15 /GR85 ratio, i.e., the GR15 rate for the crop divided by the GR85 rate for the weed, both rates in kg/ha (lb/A). In the tables below, selectivity factors are shown in parenthesis following the GR85 rate for each weed; the symbol "NS" indicates "non-selective". Marginal or undetermined selectivity is indicated by a dash (--).
(§3) It will be understood by those skilled in the art that not all of the named weeds are selectively controlled in all of the named crops under all conditions of climate, soil, moisture and/or herbicide application modes. Selectivity data for control of the foregoing weeds in the crops soybeans, corn, cotton and peanuts from a plurality of field tests in various locations under various conditions of soil, moisture, etc., is shown collectively in Tables VIII-XI, respectively.

Yellow foxtail = experiment: Field tests, selectivity; assay type: in vivo; details: in soybeans, 6 WAT
Text: as §1, §2, §3

prickly sida = experiment: Field tests, selectivity; assay type: in vivo; details: in cotton
Text: as §1, §2, §3

goosegrass = experiment: Field tests, selectivity; assay type: in vivo; details: in cotton, P.P.I., 7 WAT
Text: as §1, §2, §3

Pennsylvania smartweed = experiment: Field tests, selectivity; assay type: in vivo; details: in soybeans, P.P.I., 8 WAT
Text: as §1, §2, §3

cotton = experiment: Field tests, selectivity; assay type: in vivo
Text: as §1, §2, §3

Morningglory = experiment: Field tests, selectivity; assay type: in vivo; details: in corn
Text: as §1, §2, §3

purslane = experiment: Field tests, selectivity; assay type: in vivo; details: in cotton, S.A., 9 WAT
Text: as §1, §2, §3

soybeans = experiment: Field tests, selectivity; assay type: in vivo
Text: as §1, §2, §3

Lambsquarters = experiment: Field tests, selectivity; assay type: in vivo; details: in soybeans, 6 WAT
Text: as §1, §2, §3

Giant foxtail = experiment: Field tests, selectivity; assay type: in vivo
Text: as §1, §2, §3

Cocklebur = experiment: Field tests, selectivity; assay type: in vivo; details: in corn
Text: as §1, §2, §3

corn = experiment: Field tests, selectivity; assay type: in vivo
Text: as §1, §2, §3

purple nutsedge = experiment: Field tests, selectivity; assay type: in vivo; details: in cotton
Text: as §1, §2, §3

peanuts = experiment: Field preemergence activity in peanuts, surface applied; assay type: in vivo; details: pre-emergence, read-out: Percent Inhibition; for inhibition at 2240 g/ha: 2.24 Kg/Ha; for inhibition at 3360 g/ha: 3.36 Kg/Ha; for inhibition at 4480 g/ha: 4.48 Kg/Ha
Text: as §3
In Table XI is presented preemergence activity data for the compound of Example 1 against three resistant annual weeds, i.e., Texas panicum, bristly starbur and Florida pusley in peanuts for periods up to 12 WAT. The data in Table XI represent the average of three replicate runs in sandy loam soil having 1.3% organic matter, 79.2% sand and 10% clay; herbicide surface applied.

Toxicology studies, LD50 = details: in vivo
Text: (§4) Toxicology studies on the compound of Example 1 have indicated the compound to be quite safe. […] No special handling procedures beyond normal precautions are deemed necessary.

[2] = Toxicology studies, skin irritation; details: in vivo
Text: as §4

[3] = Toxicology studies, eye irritation; details: in vivo
Text: as §4

In the case of CCOCN(C(=O)CCl)c1c(C)cccc1C(F)(F)F [Example 1, N-(ethoxymethyl)-2'-trifluoromethyl-6'-methyl-2-chloroacetanilide], the GR85 ([1]; P.P.I.) is reported as 1.1 kg/ha, the GR85 ([1]; S.A.) is reported as < 1.1 kg/ha and the “S.F. (GR15/GR85)” value ([1]; S.A.) is reported as > 1. For the same compound, the GR85 (Yellow foxtail; P.P.I.) was < 1.12 kg/ha, the “S.F. (GR15/GR85)” value (Yellow foxtail; P.P.I.) was > 1 and the GR85 (Yellow foxtail; S.A.) was 1.1 kg/ha. The “S.F. (GR15/GR85)” value (Yellow foxtail; S.A.) was 2, the GR85 (prickly sida; P.P.I., 6 WAT) was 4.8 kg/ha and the GR85 (prickly sida; S.A., 6 WAT) was 3.1 kg/ha. For the same compound, the “S.F. (GR15/GR85)” value (prickly sida; S.A., 6 WAT) was 1, the GR85 (prickly sida; S.A., 9 WAT) was 4.8 kg/ha and the GR85 (goosegrass) was < 1.1 kg/ha. For the same compound, the control (goosegrass) was “marginal or indeterminate”, the GR85 (Pennsylvania smartweed) was 2.5 kg/ha and the “S.F. (GR15/GR85)” value (Pennsylvania smartweed) was 2. The GR15 (cotton; Cotton/Crabgrass, P.P.I., 7 WAT) was 0.84 kg/ha, the GR15 (cotton; Cotton/Crabgrass, S.A., 7 WAT) was 1.4 kg/ha and the GR15 (cotton; Cotton/Goosegrass, P.P.I., 7 WAT) was 0.84 kg/ha. It also gave a GR15 (cotton; Cotton/Prickly sida, P.P.I., 6 WAT) of 3.4 kg/ha, a GR15 (cotton; Cotton/Prickly sida, S.A., 6 WAT) of 3.6 kg/ha and a GR15 (cotton; Cotton/Prickly sida, S.A., 9 WAT) of 3.4 kg/ha. The GR15 (cotton; Cotton/Purple nutsedge, P.P.I., 6 WAT) was 3.4 kg/ha, the GR15 (cotton; Cotton/Purple nutsedge, S.A., 6 WAT) was 3.6 kg/ha and the GR15 (cotton; Cotton/Purple nutsedge, S.A., 9 WAT) was 3.4 kg/ha. For the same compound, the GR15 (cotton; Cotton/Purslane, S.A., 9 WAT) was 3.4 kg/ha, the GR85 (Morningglory; P.P.I., 3 WAT) was > 4.5 kg/ha and the GR85 (Morningglory; P.P.I., 6 WAT) was > 4.5 kg/ha. For the same compound, the GR85 (Morningglory; S.A., 3 WAT) was > 4.5 kg/ha, the GR85 (Morningglory; S.A., 6 WAT) was > 4.5 kg/ha and the suppression (Morningglory; Table IX) was “suppression of these weeds was exhibited”. For the same compound, the GR85 (purslane) was 2.0 kg/ha, the “S.F. (GR15/GR85)” value (purslane) was 1.5 and the GR15 (soybeans; Soybeans/Giant foxtail, P.P.I., 3 WAT) was > 4.5 kg/ha. For the same compound, the GR15 (soybeans; Soybeans/Giant foxtail, P.P.I., 5 WAT) was > 4.5 kg/ha, the GR15 (soybeans; Soybeans/Giant foxtail, S.A., 3 WAT) was > 4.5 kg/ha and the GR15 (soybeans; Soybeans/Lambsquarters, P.P.I., 6 WAT) was 1.4 kg/ha. For the same compound, the GR15 (soybeans; Soybeans/Lambsquarters, S.A., 6 WAT) was 2.5 kg/ha, the GR15 (soybeans; Soybeans/Pennsylvania Smartweed, P.P.I., 8 WAT) was 4.5 kg/ha and the GR15 (soybeans; Soybeans/Yellow foxtail, P.P.I., 6 WAT) was 1.4 kg/ha. The GR15 (soybeans; Soybeans/Yellow foxtail, S.A., 6 WAT) was 2.5 kg/ha, the GR85 (Lambsquarters; P.P.I.) was 2.8 kg/ha and the GR85 (Lambsquarters; S.A.) was 2.5 kg/ha. The “S.F. (GR15/GR85)” value (Lambsquarters; S.A.) was 1, the GR85 (Giant foxtail; in corn, P.P.I., 6 WAT) was 2.0 kg/ha and the “S.F. (GR15/GR85)” value (Giant foxtail; in corn, P.P.I., 6 WAT) was 2.5. The GR85 (Giant foxtail; in corn, P.P.I., 6.5 WAT) was 4.5 kg/ha, the “S.F. (GR15/GR85)” value (Giant foxtail; in corn, P.P.I., 6.5 WAT) was 1.5 and the GR85 (Giant foxtail; in corn, S.A., 6 WAT) was < 1.1 kg/ha. For the same compound, the “S.F. (GR15/GR85)” value (Giant foxtail; in corn, S.A., 6 WAT) was 4, the GR85 (Giant foxtail; in corn, S.A., 6.5 WAT) was 8.4 kg/ha and the GR85 (Giant foxtail; in soybeans, P.P.I., 3 WAT) was < 1.1 kg/ha. The “S.F. (GR15/GR85)” value (Giant foxtail; in soybeans, P.P.I., 3 WAT) was > 4, the GR85 (Giant foxtail; in soybeans, P.P.I., 5 WAT) was < 1.1 kg/ha and the “S.F. (GR15/GR85)” value (Giant foxtail; in soybeans, P.P.I., 5 WAT) was > 4. For the same compound, the GR85 (Giant foxtail; in soybeans, S.A., 3 WAT) was < 1.1 kg/ha, the “S.F. (GR15/GR85)” value (Giant foxtail; in soybeans, S.A., 3 WAT) was > 4 and the GR85 (Cocklebur; P.P.I., 3 WAT) was > 4.5 kg/ha. For the same compound, the GR85 (Cocklebur; P.P.I., 6 WAT) was > 4.5 kg/ha, the GR85 (Cocklebur; S.A., 3 WAT) was > 4.5 kg/ha and the GR85 (Cocklebur; S.A., 6 WAT) was > 4.5 kg/ha. For the same compound, the suppression (Cocklebur; Table IX) was “suppression of these weeds was exhibited”, the GR15 (corn; Corn/Cocklebur, P.P.I., 3 WAT) was 4.8 kg/ha and the GR15 (corn; Corn/Cocklebur, P.P.I., 6 WAT) was 4.8 kg/ha. For the same compound, the GR15 (corn; Corn/Cocklebur, S.A., 3 WAT) was > 4.5 kg/ha, the GR15 (corn; Corn/Cocklebur, S.A., 6 WAT) was > 4.5 kg/ha and the GR15 (corn; Corn/Giant foxtail, P.P.I., 6 WAT) was 4.8 kg/ha. The GR15 (corn; Corn/Giant foxtail, P.P.I., 6.5 WAT) was > 6.7 kg/ha, the GR15 (corn; Corn/Giant foxtail, S.A., 6 WAT) was 4.5 kg/ha and the GR15 (corn; Corn/Giant foxtail, S.A., 6.5 WAT) was > 7.8 kg/ha. The GR15 (corn; Corn/Morningglory, P.P.I., 3 WAT) was 4.8 kg/ha, the GR15 (corn; Corn/Morningglory, P.P.I., 6 WAT) was 4.8 kg/ha and the GR15 (corn; Corn/Morningglory, S.A., 3 WAT) was > 4.5 kg/ha. The GR15 (corn; Corn/Morningglory, S.A., 6 WAT) was > 4.5 kg/ha, the GR85 (purple nutsedge; P.P.I., 6 WAT) was 4.2 kg/ha and the GR85 (purple nutsedge; S.A., 6 WAT) was 1.7 kg/ha. For the same compound, the “S.F. (GR15/GR85)” value (purple nutsedge; S.A., 6 WAT) was 2, the GR85 (purple nutsedge; S.A., 9 WAT) was 2.2 kg/ha and the “S.F. (GR15/GR85)” value (purple nutsedge; S.A., 9 WAT) was 1.5. It also gave an inhibition at 2240 g/ha (peanuts; 4 WAT) of 5%, an inhibition at 2240 g/ha (peanuts; 8 WAT) of 0% and an inhibition at 2240 g/ha (peanuts; 12 WAT) of 0%. For the same compound, the inhibition at 3360 g/ha (peanuts; 4 WAT) was 10%, the inhibition at 3360 g/ha (peanuts; 8 WAT) was 0% and the inhibition at 3360 g/ha (peanuts; 12 WAT) was 0%. The inhibition at 4480 g/ha (peanuts; 4 WAT) was 17%, the inhibition at 4480 g/ha (peanuts; 8 WAT) was 7% and the inhibition at 4480 g/ha (peanuts; 12 WAT) was 0%. The toxicity (Toxicology studies, LD50) was “slightly toxic”, the LD50 (Toxicology studies, LD50; po, read-out: OLD50) was 2300 mg/kg and the LD50 (Toxicology studies, LD50; read-out: MLD50) was > 5010 mg/kg. For the same compound, the skin irritation [2] was “no skin irritation” and the eye irritation [3] was “slight eye irritation”.
